Experimental data from patent publication US6711436B1, “Compositions, apparatus and methods for facilitating surgical procedures” (priority 1997, dated 2004).
Several values for one entry are separate records, joined by “and”; a condition that tells them apart may be missing. Equal values may be shown once.

Test system: heart
Experiment: In vivo swine study of carbachol alone vs carbachol plus propranolol, intracoronary, to induce ventricular asystole
Conditions: individual swine
Description: Eleven male crossbred swine weighing 20-25 kg were studied, eight of which received carbachol alone and three of which received carbachol plus propranolol. The swine were sedated using 10 mg/kg IV ketamine. After 20 minutes, the animals were induced with 10 mg/kg IV thiopental sodium and orotracheally intubated. The proper anesthetic plane was maintained with 1% Isoflurane. Periodic arterial blood gas samples were obtained to guide ventilator management. The electrocardiograph was continuously monitored. Through a 7 Fr sheath in the left femoral artery, arterial blood samples were obtained and a micromanometer was inserted to monitor central aortic blood pressure (Millar Instruments, Inc., Houston, Tex.). The heart was exposed through a median sternotomy and suspended in a pericardial cradle. Two temporary epicardial pacing wires were affixed to the right ventricle and connected to an external pacemaker (Medtronic, Inc., Minneapolis, Minn.). The pacemaker was modified to permit deactuation by means of depressing a foot pedal. Through the femoral sheath, an AR-1 guide (Cordis Corp., Miami Lakes, Fla.) was placed into the right coronary artery. An 0.014-inch floppy guide wire was then advanced into the right coronary artery to the level of the posterior descending coronary artery. The AR-1 guide was removed and a 2.5 Fr Tracker (Cordis Corp., Miami Lakes, Fla.) catheter was inserted over the guide wire. Using dye injection, the catheter was positioned just proximal to the take-off of the atrioventricular node artery. Carbachol (Sigma St. Louis, Mo.) solution was prepared the day of the experiment and infused at a constant rate using a Harvard pump.
Animals received either carbachol alone or carbachol in combination with propranolol (Inderal®, Wyeth Ayerst, Philadelphia, Pa.). All animals were instrumented and allowed 10 minutes of hemodynamic stability. Before carbachol was administered, each subject received a 500 ml IV bolus of 0.9% sodium chloride.
In the animals receiving carbachol plus propranolol, a 1 mg dose of propranolol (0.04-0.05 mg/kg) was administered through the Tracker catheter. Carbachol was then administered as a 0.5 mg intracoronary bolus (0.02 mg/kg) followed by a constant infusion. […] After carbachol-mediated ventricular asystole was observed, the heart was paced at 100 beats/minute. […] The systolic blood pressure (SBP), diastolic blood pressure (DBP), and […] arterial pressure (MAP) were recorded every five minutes. The duration of ventricular asystole, defined in this example as a heart rate less than twelve beats per minute, was recorded. […] After 75 minutes, the carbachol infusion was stopped and the time required to return to normal sinus rhythm was recorded.

With `C[N+](C)(C)CCOC(N)=O.[Cl-]` [carbachol, carbamyl choline chloride] the “time to NSR (normal sinus rhythm)” value (after carbachol infusion was stopped (after 75 minutes)) was 8 min and 3 min, the “duration of ventricular asystole” value (asystole defined as heart rate less than twelve beats per minute, pacemaker turned off 5 s at 60-second intervals) was 87 min and 75 min (2×) and 53 min and 24 min and 76 min (2×) and 47 min and the “carbachol dose (infusion rate per body weight) achieving ventricular asystole” value (intracoronary infusion) was 86.0 μg/kg/min and 12.2 μg/kg/min and 9.7 μg/kg/min and 20.9 μg/kg/min and 41.9 μg/kg/min and 10.7 μg/kg/min (2×) and 31.0 μg/kg/min. The “infusion rate of carbachol necessary to achieve ventricular asystole” value (intracoronary infusion, doses increased until ventricular asystole observed, combination arm: 1 mg propranolol then 0.5 mg carbachol bolus before infusion) was 1.72 mg/min and 0.44 mg/min (5×) and 0.88 mg/min and 0.62 mg/min.
